Columns and labels:
[1] = Compound cytotoxicity, XTT-based colorimetric assay; format: cell-based; settings: human; uninfected MT2 cells, day 4, XTT assay
Method: Compound cytotoxicity and the corresponding CC50 values were determined using the same protocol as described in the antiviral assay except that uninfected cells were used. Cytotoxicity was assessed on day 4 in uninfected MT2 cells by using a XTT (2,3-bis[2-Methoxy-4-nitro-5-sulfophenyl]-2H-tetrazolium-5-carboxyanilide inner salt)-based colorimetric assay (Sigma-Aldrich, St Louis, Mo.).

[2] = test system: recombinant NL4-3 virus; assay: HIV cell culture assay (antiviral activity, luciferase readout); format: cell-based; settings: Human immunodeficiency virus 1, NL43, MT2, MT-2 cells infected for 4-5 days with recombinant NL4-3 virus carrying Renilla luciferase
Method: HIV cell culture assay—MT-2 cells, 293T cells and the proviral DNA clone of NL4-3 virus were obtained from the NIH AIDS Research and Reference Reagent Program. MT-2 cells were propagated in RPMI 1640 media supplemented with 10% heat inactivated fetal bovine serum (FBS), […]. The 293T cells were propagated in DMEM media supplemented with 10% heat inactivated FBS, […]. A recombinant NL4-3 proviral clone, in which a section of the nef gene was replaced with the Renilla luciferase gene, was used to make the reference virus used in these studies. The recombinant virus was prepared through transfection of the recombinant NL4-3 proviral clone into 293T cells using Transit-293 Transfection Reagent from Mirus Bio LLC (Madison, WI). Supernatent was harvested after 2-3 days and the amount of virus present was titered in MT-2 cells using luciferase enzyme activity as a marker by measuring luciferase enzyme activity. Luciferase was quantitated using the EnduRen Live Cell Substrate from Promega (Madison, Wis.). Antiviral activities of compounds toward the recombinant virus were quantified by measuring luciferase activity in MT-2 cells infected for 4-5 days with the recombinant virus in the presence of serial dilutions of the compound.
The 50% effective concentration (EC50) was calculated by using the exponential form of the median effect equation where (Fa)=1/[1+(ED50/drug conc.)m] (Johnson VA, Byington RT. Infectivity Assay. In Techniques in HIV Research. ed. Aldovini A, Walker BD. 71-76. New York: Stockton Press. 1990). The 50% inhibitory concentration (EC50) was calculated by using the exponential form of the median effect equation where percent inhibition=1/[1+(EC50/drug concentration)m], where m is a parameter that reflects the slope of the concentration-response curve.

Question: Which CC50 at 4 day [1] does the source give for `Cc1ccnc(-c2ccc3c(=O)n(-c4ccc(Cl)c5c(NS(C)(=O)=O)nn(C)c45)c([C@H](Cc4cc(F)cc(F)c4)NC(=O)Cn4nc(C(F)F)c5c4C(F)(F)[C@@H]4C[C@H]54)nc3n2)n1` (atropisomer, axis not shown; (P)) [Example 10, N-((S)-1-((3P)-3-(4-chloro-1-methyl-3-(methylsulfonamido)-1H-indazol-7-yl)-7-(4-methylpyrimidin-2-yl)-4-oxo-3,4-dihydropyrido[2,3-d]pyrimidin-2-yl)-2-(3,5-difluorophenyl)ethyl)-2-((3bS,4aR)-3-(difluoromethyl)-5,5-difluoro-3b,4,4a,5-tetrahydro-1H-cyclopropa[3,4]cyclopenta[1,2-c]pyrazol-1-yl)acetamide] here?
Answer: > 100 nM

Question: And the EC50 [2]?
Answer: 0.03 nM

Question: For `Cn1nc(C(F)(F)F)cc1-c1ccc2c(=O)n(-c3ccc(Cl)c4c(NS(C)(=O)=O)nn(C)c34)c([C@H](Cc3cc(F)cc(F)c3)NC(=O)Cn3nc(C(F)F)c4c3C(F)(F)[C@@H]3C[C@H]43)nc2n1` (atropisomer, axis not shown; (P)) [Example 83, N-((S)-1-((3P)-3-(4-chloro-1-methyl-3-(methylsulfonamido)-1H-indazol-7-yl)-7-(1-methyl-3-(trifluoromethyl)-1H-pyrazol-5-yl)-4-oxo-3,4-dihydropyrido[2,3-d]pyrimidin-2-yl)-2-(3,5-difluorophenyl)ethyl)-2-((3bS,4aR)-3-(difluoromethyl)-5,5-difluoro-3b,4,4a,5-tetrahydro-1H-cyclopropa[3,4]cyclopenta[1,2-c]pyrazol-1-yl)acetamide], which CC50 at 4 day [1] is on record?
Answer: > 100 nM

Question: And the EC50 [2]?
Answer: 0.07 nM

Question: Which CC50 at 4 day [1] does the source give for `Cn1nc(NS(C)(=O)=O)c2c(Cl)ccc(-n3c([C@H](Cc4cc(F)cc(F)c4)NC(=O)Cn4nc(C(F)F)c5c4C(F)(F)[C@@H]4C[C@H]54)nc4nc(-c5cc(C(F)(F)F)n(CC(C)(F)F)n5)ccc4c3=O)c21` (single isomer, unassigned) [Example 94] here?
Answer: > 100 nM

Question: And the EC50 [2]?
Answer: 0.16 nM

Question: For `CC(C)Cn1nccc1-c1ccc2c(=O)n(-c3ccc(Cl)c4c(NS(C)(=O)=O)nn(C)c34)c([C@H](Cc3cc(F)cc(F)c3)NC(=O)Cn3nc(C(F)F)c4c3C(F)(F)[C@@H]3C[C@H]43)nc2n1` (atropisomer, axis not shown; (P)) [Example 69, N-((S)-1-((3P)-3-(4-chloro-1-methyl-3-(methylsulfonamido)-1H-indazol-7-yl)-7-(1-isobutyl-1H-pyrazol-5-yl)-4-oxo-3,4-dihydropyrido[2,3-d]pyrimidin-2-yl)-2-(3,5-difluorophenyl)ethyl)-2-((3bS,4aR)-3-(difluoromethyl)-5,5-difluoro-3b,4,4a,5-tetrahydro-1H-cyclopropa[3,4]cyclopenta[1,2-c]pyrazol-1-yl)acetamide], which CC50 at 4 day [1] is on record?
Answer: > 100 nM

Question: And the EC50 [2]?
Answer: 0.099 nM

Question: Which results are given for `Cn1nc(NS(C)(=O)=O)c2c(Cl)ccc(-n3c([C@H](Cc4cc(F)cc(F)c4)NC(=O)Cn4nc(C(F)F)c5c4C(F)(F)[C@@H]4C[C@H]54)nc4nc(-c5cccc(C(C)(F)F)n5)ccc4c3=O)c21` (atropisomer, axis not shown; (P)) [Example 12, N-((S)-1-((3P)-3-(4-chloro-1-methyl-3-(methylsulfonamido)-1H-indazol-7-yl)-7-(6-(1,1-difluoroethyl)pyridin-2-yl)-4-oxo-3,4-dihydropyrido[2,3-d]pyrimidin-2-yl)-2-(3,5-difluorophenyl)ethyl)-2-((3bS,4aR)-3-(difluoromethyl)-5,5-difluoro-3b,4,4a,5-tetrahydro-1H-cyclopropa[3,4]cyclopenta[1,2-c]pyrazol-1-yl)acetamide]?
Answer: CC50 at 4 day [1]: > 100 nM; EC50 [2]: 0.06 nM

Question: For `Cn1nc(NS(C)(=O)=O)c2c(Cl)ccc(-n3c([C@H](Cc4cc(F)cc(F)c4)NC(=O)Cn4nc(C(F)F)c5c4C(F)(F)[C@@H]4C[C@H]54)nc4nc(-c5cc(C(F)(F)F)cc(C(F)(F)F)n5)ccc4c3=O)c21` (atropisomer, axis not shown; (P)) [Example 14, N-((S)-1-(7-(4,6-bis(trifluoromethyl)pyridin-2-yl)-(3P)-3-(4-chloro-1-methyl-3-(methylsulfonamido)-1H-indazol-7-yl)-4-oxo-3,4-dihydropyrido[2,3-d]pyrimidin-2-yl)-2-(3,5-difluorophenyl)ethyl)-2-((3bS,4aR)-3-(difluoromethyl)-5,5-difluoro-3b,4,4a,5-tetrahydro-1H-cyclopropa[3,4]cyclopenta[1,2-c]pyrazol-1-yl)acetamide], which CC50 at 4 day [1] is on record?
Answer: > 100 nM

Question: And the EC50 [2]?
Answer: 0.28 nM

Question: What does the source list for `Cn1nc(NS(C)(=O)=O)c2c(Cl)ccc(-n3c([C@H](Cc4cc(F)cc(F)c4)NC(=O)Cn4nc(C(F)F)c5c4C(F)(F)[C@@H]4C[C@H]54)nc4nc(-c5cc(C(F)F)ccn5)ccc4c3=O)c21` (atropisomer, axis not shown; (P)) [Example 39, N-((S)-1-((3P)-3-(4-chloro-1-methyl-3-(methylsulfonamido)-1H-indazol-7-yl)-7-(4-(difluoromethyl)pyridin-2-yl)-4-oxo-3,4-dihydropyrido[2,3-d]pyrimidin-2-yl)-2-(3,5-difluorophenyl)ethyl)-2-((3bS,4aR)-3-(difluoromethyl)-5,5-difluoro-3b,4,4a,5-tetrahydro-1H-cyclopropa[3,4]cyclopenta[1,2-c]pyrazol-1-yl)acetamide]?
Answer: CC50 at 4 day [1]: > 100 nM; EC50 [2]: 0.046 nM

Question: Which results are given for `Cn1nc(NS(C)(=O)=O)c2c(Cl)ccc(-n3c([C@H](Cc4cc(F)cc(F)c4)NC(=O)Cn4nc(C(F)F)c5c4C(F)(F)[C@@H]4C[C@H]54)nc4nc(-n5ccnc5)ccc4c3=O)c21` (atropisomer, axis not shown; (P)) [Example 64, N-((S)-1-((3P)-3-(4-chloro-1-methyl-3-(methylsulfonamido)-1H-indazol-7-yl)-7-(1H-imidazol-1-yl)-4-oxo-3,4-dihydropyrido[2,3-d]pyrimidin-2-yl)-2-(3,5-difluorophenyl)ethyl)-2-((3bS,4aR)-3-(difluoromethyl)-5,5-difluoro-3b,4,4a,5-tetrahydro-1H-cyclopropa[3,4]cyclopenta[1,2-c]pyrazol-1-yl)acetamide]?
Answer: CC50 at 4 day [1]: > 100 nM; EC50 [2]: 0.53 nM

Question: What does the source list for `Cn1nc(NS(C)(=O)=O)c2c(Cl)ccc(-n3c([C@H](Cc4cc(F)cc(F)c4)NC(=O)Cn4nc(C(F)F)c5c4C(F)(F)[C@@H]4C[C@H]54)nc4nc(-c5cccc(Cl)n5)ccc4c3=O)c21` (atropisomer, axis not shown; (P)) [Example 50, N-((S)-1-((3P)-3-(4-chloro-1-methyl-3-(methylsulfonamido)-1H -indazol-7-yl)-7-(6-chloropyridin-2-yl)-4-oxo-3,4-dihydropyrido[2,3-d]pyrimidin-2-yl)-2-(3,5-difluorophenyl)ethyl)-2-((3bS,4aR)-3-(difluoromethyl)-5,5-difluoro-3b,4,4a,5-tetrahydro-1H-cyclopropa[3,4]cyclopenta[1,2-c]pyrazol-1-yl)acetamide]?
Answer: CC50 at 4 day [1]: > 100 nM; EC50 [2]: 0.056 nM

Question: What does the source list for `Cn1nc(NS(C)(=O)=O)c2c(Cl)ccc(-n3c([C@H](Cc4cc(F)cc(F)c4)NC(=O)Cn4nc(C(F)F)c5c4C(F)(F)[C@@H]4C[C@H]54)nc4nc(-c5ccnn5C5CC5)ccc4c3=O)c21` (atropisomer, axis not shown; (P)) [Example 77, N-((S)-1-((3P)-3-(4-chloro-1-methyl-3-(methylsulfonamido)-1H-indazol-7-yl)-7-(1-cyclopropyl-1H-pyrazol-5-yl)-4-oxo-3,4-dihydropyrido[2,3-d]pyrimidin-2-yl)-2-(3,5-difluorophenyl)ethyl)-2-((3bS,4aR)-3-(difluoromethyl)-5,5-difluoro-3b,4,4a,5-tetrahydro-1H-cyclopropa[3,4]cyclopenta[1,2-c]pyrazol-1-yl)acetamide]?
Answer: CC50 at 4 day [1]: > 100 nM; EC50 [2]: 0.073 nM

Question: Which results are given for `Cn1nc(NS(C)(=O)=O)c2c(Cl)ccc(-n3c([C@H](Cc4cc(F)cc(F)c4)NC(=O)Cn4nc(C(F)F)c5c4C(F)(F)[C@@H]4C[C@H]54)nc4nc(-c5cc(C(F)(F)F)ncn5)ccc4c3=O)c21` (atropisomer, axis not shown; (P)) [Example 15, N-((S)-1-((3P)-3-(4-chloro-1-methyl-3-(methylsulfonamido)-1H-indazol-7-yl)-4-oxo-7-(6-(trifluoromethyl)pyrimidin-4-yl)-3,4-dihydropyrido[2,3-d]pyrimidin-2-yl)-2-(3,5-difluorophenyl)ethyl)-2-((3bS,4aR)-3-(difluoromethyl)-5,5-difluoro-3b,4,4a,5-tetrahydro-1H-cyclopropa[3,4]cyclopenta[1,2-c]pyrazol-1-yl)acetamide]?
Answer: CC50 at 4 day [1]: > 100 nM; EC50 [2]: 0.025 nM
